Data taken from the CheMixHub viscosity set.
± gives the uncertainty stated by the source.

Experiment: xn = mol fraction of the nth substance listed

CCCOCCO + CCCO
298.15 K, 101.33 kPa
Details	viscosity [mPa·s]
x1 = 0.0085	1.95 ± 0.015
x1 = 0.0212	1.945 ± 0.016
x1 = 0.0386	1.944 ± 0.016
x1 = 0.0573	1.944 ± 0.016
x1 = 0.0817	1.943 ± 0.016
x1 = 0.0917	1.942 ± 0.016
x1 = 0.1295	1.944 ± 0.016
x1 = 0.157	1.948 ± 0.016
x1 = 0.2095	1.961 ± 0.017
x1 = 0.2715	1.976 ± 0.017
x1 = 0.323	1.994 ± 0.018
x1 = 0.3675	2.01 ± 0.018
x1 = 0.4185	2.031 ± 0.019
x1 = 0.4527	2.046 ± 0.02
x1 = 0.5174	2.072 ± 0.02
x1 = 0.5743	2.103 ± 0.021
x1 = 0.6243	2.125 ± 0.022
x1 = 0.6804	2.151 ± 0.023
x1 = 0.7324	2.186 ± 0.024
x1 = 0.7821	2.219 ± 0.025
x1 = 0.853	2.257 ± 0.026
x1 = 0.9063	2.294 ± 0.027
x1 = 0.9599	2.326 ± 0.028

N#Cc1ccccc1 + CCCO
viscosity [mPa·s], 101.33 kPa
Details	x1 = 0.1072	x1 = 0.2174	x1 = 0.2995	x1 = 0.4082	x1 = 0.5248	x1 = 0.5951	x1 = 0.6992	x1 = 0.7547	x1 = 0.9108
303.15 K	1.447 ± 0.038	1.31 ± 0.027	1.222 ± 0.026	1.138 ± 0.025	1.096 ± 0.021	1.079 ± 0.02	1.066 ± 0.02	1.071 ± 0.019	1.094 ± 0.021
308.15 K	1.308 ± 0.028	1.19 ± 0.025	1.113 ± 0.023	1.037 ± 0.02	1.006 ± 0.019	0.994 ± 0.018	0.986 ± 0.018	0.991 ± 0.018	1.018 ± 0.017
313.15 K	1.187 ± 0.021	1.082 ± 0.023	1.017 ± 0.02	0.955 ± 0.016	0.93 ± 0.017	0.918 ± 0.017	0.913 ± 0.016	0.919 ± 0.016	0.951 ± 0.015

Nc1cccc2ccccc12 + CCCO
viscosity [mPa·s], 101 kPa
Details	x1 = 0.02914	x1 = 0.0566	x1 = 0.1072	x1 = 0.1525	x1 = 0.1936	x1 = 0.2308	x1 = 0.2648
293.15 K	2.371 ± 0.054	2.516 ± 0.057	2.846 ± 0.064	3.22 ± 0.072	3.628 ± 0.081	4.054 ± 0.09	4.498 ± 0.099
303.15 K	1.836 ± 0.043	1.937 ± 0.045	2.154 ± 0.05	2.392 ± 0.055	2.662 ± 0.06	2.931 ± 0.066	3.222 ± 0.072
313.15 K	1.445 ± 0.036	1.518 ± 0.037	1.674 ± 0.04	1.839 ± 0.043	2.02 ± 0.047	2.211 ± 0.051	2.403 ± 0.055
323.15 K	1.153 ± 0.031	1.21 ± 0.032	1.324 ± 0.034	1.443 ± 0.036	1.57 ± 0.038	1.7 ± 0.041	1.838 ± 0.043

CCCCOCCCOCCCO + CCO
viscosity [mPa·s], 101.33 kPa
Details	298.15 K	308.15 K	318.15 K
x1 = 0.05	1.3 ± 0.02	1.074 ± 0.017	0.896 ± 0.015
x1 = 0.1	1.505 ± 0.023	1.227 ± 0.019	1.015 ± 0.016
x1 = 0.15	1.717 ± 0.026	1.386 ± 0.021	1.137 ± 0.018
x1 = 0.2	1.927 ± 0.029	1.541 ± 0.023	1.256 ± 0.02
x1 = 0.25	2.135 ± 0.032	1.696 ± 0.026	1.369 ± 0.021
x1 = 0.3	2.362 ± 0.035	1.858 ± 0.028	1.497 ± 0.023
x1 = 0.35	2.562 ± 0.038	2.003 ± 0.03	1.597 ± 0.024
x1 = 0.4001	2.755 ± 0.04	2.14 ± 0.032	1.696 ± 0.026
x1 = 0.4499	2.94 ± 0.043	2.265 ± 0.034	1.79 ± 0.027
x1 = 0.4999	3.121 ± 0.045	2.39 ± 0.035	1.879 ± 0.028
x1 = 0.5499	3.292 ± 0.048	2.51 ± 0.037	1.956 ± 0.029
x1 = 0.5997	3.453 ± 0.05	2.622 ± 0.038	2.039 ± 0.03
x1 = 0.6501	3.608 ± 0.052	2.724 ± 0.04	2.114 ± 0.032
x1 = 0.6998	3.756 ± 0.054	2.821 ± 0.041	2.182 ± 0.032
x1 = 0.7499	3.899 ± 0.056	2.91 ± 0.043	2.24 ± 0.033
x1 = 0.7999	4.018 ± 0.058	2.998 ± 0.044	2.306 ± 0.034
x1 = 0.8499	4.147 ± 0.059	3.088 ± 0.045	2.363 ± 0.035
x1 = 0.8997	4.271 ± 0.061	3.158 ± 0.046	2.423 ± 0.036
x1 = 0.9498	4.386 ± 0.063	3.233 ± 0.047	2.466 ± 0.037

CCCCn1cc[n+](C)c1.[Cl-] + CCO
viscosity [mPa·s], 101 kPa
Details	293.15 K	303.15 K	308.15 K
x2 = 0.4991	75.1 ± 20	–	–
x2 = 0.7003	–	9.24 ± 1.5	8.17 ± 1.3

N#Cc1ccccc1 + CCO
viscosity [mPa·s], 101.33 kPa
Details	x1 = 0.1051	x1 = 0.2045	x1 = 0.3213	x1 = 0.4131	x1 = 0.4921	x1 = 0.6214	x1 = 0.6673	x1 = 0.769	x1 = 0.9218
303.15 K	0.923 ± 0.028	0.891 ± 0.027	0.897 ± 0.023	0.901 ± 0.022	0.912 ± 0.02	0.938 ± 0.02	0.963 ± 0.019	1.006 ± 0.019	1.075 ± 0.02
308.15 K	0.846 ± 0.025	0.817 ± 0.023	0.826 ± 0.022	0.834 ± 0.02	0.849 ± 0.019	0.873 ± 0.018	0.893 ± 0.019	0.935 ± 0.018	1.005 ± 0.017
313.15 K	0.775 ± 0.023	0.75 ± 0.02	0.762 ± 0.02	0.772 ± 0.019	0.785 ± 0.018	0.813 ± 0.017	0.828 ± 0.017	0.87 ± 0.017	0.939 ± 0.015
